US9511134B2, “Inducing immune responses to influenza virus using polypeptide and nucleic acid compositions” (priority 2006, dated 2016)
Where no end group is shown, it is not given here.

Experiments:
Assay in all cases: biochemical
Assay type in all cases: binding
DRB1*0101 = target: T1, DRB1*0101 (Homo sapiens, UniProt P01903+P01911, A100R/D57E/F55L/F60I/F76Y/I96L/L162R/M171V/P40L/Q125E/R42F/V115G/Y59C); conditions: IC50 nM to purified HLA DRB1*0101
T1 construct: made in house; host or cells: EBV-transformed homozygous human B cell lines, transfected fibroblasts or single-allele 721.221 transfectants

DRB1*0401 = target: T2, DRB1*0401 (Homo sapiens, UniProt P01903+P01911, A100K/A169T/F76Y/I96L/K127E/L162R/M171V/N62H/P40V/Q125Y/R42H/S133A/S149N/S66Y/V115G/V209L/W38E); conditions: read-out: IC50 nM to purified HLA DRB1*0401
T2 construct: made in house; host or cells: EBV-transformed homozygous human B cell lines, transfected fibroblasts or single-allele 721.221 transfectants

DRB1*1501 = target: T3, DRB1*1501 (Homo sapiens, UniProt P01903+P01911); conditions: read-out: IC50 nM to purified HLA DRB1*1501
T3 construct: made in house; host or cells: EBV-transformed homozygous human B cell lines, transfected fibroblasts or single-allele 721.221 transfectants

DRB1*1302 = DRB1*1302 (Homo sapiens, UniProt P01903+P01911, A100E/A169T/K41T/L162R/M171V/P40S/Q125H/Q178H/Q39Y/Q99D/R42S/S66N/T262R/V115G/W38E/Y61H); conditions: read-out: IC50 nM to purified HLA DRB1*1302
DRB1*1302, sequence (P01903 26-254 limits assumed, other chains not shown): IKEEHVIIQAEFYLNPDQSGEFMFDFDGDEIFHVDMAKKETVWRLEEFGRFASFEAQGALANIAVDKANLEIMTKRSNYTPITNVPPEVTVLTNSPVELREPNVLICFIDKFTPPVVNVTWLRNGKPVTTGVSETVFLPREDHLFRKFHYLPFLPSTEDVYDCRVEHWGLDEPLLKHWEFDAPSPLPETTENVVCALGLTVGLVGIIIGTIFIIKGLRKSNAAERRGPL

DRB1*0301 = target: T4, DRB1*0301 (Homo sapiens, UniProt P01903+P01911, A100K/A102G/A103R/A169T/F55Y/I96L/K41T/L162R/M171V/P40S/Q125H/Q178H/Q39Y/R42S/S66N/T106N/T262R/W38E/Y61H)
T4 construct: made in house; host or cells: EBV-transformed homozygous human B cell lines, transfected fibroblasts or single-allele 721.221 transfectants
T4 sequence (P01903 26-254, other chains not shown): as the sequence (P01903 26-254 limits assumed, other chains not shown) above

Row | Molecule | IC50 (DRB1*0101) [nM] | IC50 (DRB1*0401) [nM] | IC50 (DRB1*1501) [nM] | IC50 (DRB1*1302) [nM] | IC50 (DRB1*0301) [µM]
1 | CC[C@H](C)[C@H](NC(=O)[C@H](CC(C)C)NC(=O)[C@H](Cc1c[nH]c2ccccc12)NC(=O)[C@@H](NC(=O)[C@@H](NC(=O)[C@H](CC(N)=O)NC(=O)[C@H](CCCNC(=N)N)NC(=O)[C@H](Cc1ccccc1)NC(=O)[C@H](Cc1ccccc1)NC(=O)[C@H](CO)NC(=O)[C@H](CO)NC(=O)[C@@H](N)CCCCN)C(C)C)C(C)C)C(=O)N[C@@H](CCCCN)C(=O)N[C@@H](CCCCN)C(=O)N[C@@H](CC(N)=O)C(=O)O [Flu.HA.156] | 46 | 474 | 832 | 20 | 
2 | CC[C@H](C)[C@H](NC(=O)[C@H](Cc1ccc(O)cc1)NC(=O)[C@@H](NC(=O)[C@@H](NC(=O)[C@@H]1CCCN1C(=O)[C@H](CC(N)=O)NC(=O)[C@H](CCC(N)=O)NC(=O)[C@H](Cc1ccc(O)cc1)NC(=O)[C@H](CC(C)C)NC(=O)[C@H](CCCCN)NC(=O)[C@@H](NC(=O)[C@@H](N)CCC(N)=O)[C@@H](C)O)[C@@H](C)O)[C@@H](C)O)C(=O)N[C@@H](CO)C(=O)N[C@H](C(=O)NCC(=O)N[C@H](C(=O)O)[C@@H](C)O)C(C)C [Flu.HA.203] |  |  | 60 | 18 | 
3 | CSCC[C@H](NC(=O)[C@H](CC(C)C)NC(=O)[C@@H](NC(=O)[C@H](CC(C)C)NC(=O)[C@@H](N)CC(C)C)C(C)C)C(=O)N[C@@H](CCC(=O)O)C(=O)N[C@@H](CC(N)=O)C(=O)N[C@@H](CCC(=O)O)C(=O)N[C@@H](CCCNC(=N)N)C(=O)N[C@H](C(=O)N[C@@H](CC(C)C)C(=O)N[C@@H](CC(=O)O)C(=O)N[C@@H](Cc1ccccc1)C(=O)N[C@@H](Cc1c[nH]cn1)C(=O)N[C@@H](CC(=O)O)C(=O)O)[C@@H](C)O [Flu.HA.444] |  |  |  |  | 0.064
4 | CC[C@H](C)[C@H](NC(=O)[C@H](CC(C)C)NC(=O)[C@H](CC(=O)O)NC(=O)[C@H](CC(=O)O)NC(=O)[C@H](CCCCN)NC(=O)[C@H](CC(C)C)NC(=O)CNC(=O)[C@H](C)NC(=O)[C@@H](N)CO)C(=O)N[C@@H](CCC(=O)O)C(=O)N[C@@H](CC(N)=O)C(=O)N[C@@H](CC(C)C)C(=O)N[C@@H](CCC(N)=O)C(=O)N[C@@H](C)C(=O)N[C@@H](Cc1ccc(O)cc1)C(=O)O [Flu.M1.229] |  |  |  |  | 0.064
5 | CC[C@H](C)[C@H](N)C(=O)NCC(=O)N[C@@H](CC(N)=O)C(=O)N[C@@H](CCSC)C(=O)N[C@H](C(=O)N[C@@H](CO)C(=O)N[C@H](C(=O)N[C@@H](Cc1c[nH]c2ccccc12)C(=O)N[C@H](C(=O)N[C@@H](CO)C(=O)N[C@@H](Cc1c[nH]cn1)C(=O)N[C@@H](CO)C(=O)N[C@H](C(=O)N[C@@H](Cc1c[nH]cn1)C(=O)N[C@H](C(=O)NCC(=O)O)[C@@H](C)O)[C@@H](C)CC)C(C)C)[C@@H](C)CC)[C@@H](C)CC [Flu.NA.26] | 1050 |  | 81 | 5950 | 
6 | CC(C)C[C@H](NC(=O)[C@H](C)NC(=O)CNC(=O)[C@H](CCC(N)=O)NC(=O)[C@@H](NC(=O)[C@H](CC(C)C)NC(=O)[C@H](Cc1ccccc1)NC(=O)[C@H](Cc1ccccc1)NC(=O)[C@@H](NC(=O)[C@@H](N)CCCNC(=N)N)[C@@H](C)O)[C@@H](C)O)C(=O)N[C@@H](CC(C)C)C(=O)N[C@@H](CC(N)=O)C(=O)N[C@@H](CC(=O)O)C(=O)N[C@@H](CCCCN)C(=O)N[C@@H](Cc1c[nH]cn1)C(=O)N[C@@H](CO)C(=O)O [Flu.NA.110] | 16 | 251 | 790 | 3210 | 
7 | CC[C@H](C)[C@H](NC(=O)[C@H](CC(N)=O)NC(=O)[C@H](CC(N)=O)NC(=O)[C@H](CCCNC(=N)N)NC(=O)[C@H](Cc1c[nH]c2ccccc12)NC(=O)[C@H](CO)NC(=O)[C@H](CCCCN)NC(=O)[C@@H](NC(=O)[C@@H](NC(=O)[C@H](CC(=O)O)NC(=O)[C@@H](NC(=O)[C@@H](NC(=O)[C@@H](NC(=O)CNC(=O)[C@H](CC(N)=O)NC(=O)[C@@H](N)Cc1ccc(O)cc1)[C@@H](C)CC)[C@@H](C)CC)[C@@H](C)O)[C@@H](C)O)[C@@H](C)CC)C(=O)O [Flu.NA.188] |  |  | 31 | 370 | 
8 | CC(C)C[C@H](NC(=O)[C@H](CCC(=O)O)NC(=O)[C@@H](NC(=O)[C@H](CO)NC(=O)[C@H](CCCCN)NC(=O)[C@@H](N)C(C)C)C(C)C)C(=O)N[C@@H](CC(=O)O)C(=O)N[C@@H](C)C(=O)N1CCC[C@H]1C(=O)N[C@@H](CC(N)=O)C(=O)N[C@@H](Cc1ccc(O)cc1)C(=O)N[C@@H](Cc1c[nH]cn1)C(=O)N[C@@H](Cc1ccc(O)cc1)C(=O)N[C@@H](CCC(=O)O)C(=O)N[C@@H](CCC(=O)O)C(=O)O [Flu.NA.244] |  |  |  | 197 | 0.065
9 | CC(C)C[C@H](NC(=O)[C@H](CO)NC(=O)[C@H](CCCCN)NC(=O)[C@H](CCC(N)=O)NC(=O)[C@H](CC(=O)O)NC(=O)[C@H](CCCNC(=N)N)NC(=O)[C@H](CCCNC(=N)N)NC(=O)[C@H](CC(C)C)NC(=O)[C@H](CCCNC(=N)N)NC(=O)[C@H](CC(=O)O)NC(=O)[C@@H](N)CC(C)C)C(=O)N[C@@H](CCCNC(=N)N)C(=O)NCC(=O)N[C@@H](CCCNC(=N)N)C(=O)NCC(=O)O [Flu.NS1.36] | 800 |  |  |  | 0.083
10 | CC[C@H](C)[C@H](NC(=O)[C@H](CCCNC(=N)N)NC(=O)[C@H](CCC(=O)O)NC(=O)[C@@H](N)C(C)C)C(=O)N[C@@H](CC(C)C)C(=O)N[C@@H](CCCCN)C(=O)N[C@@H](CCC(=O)O)C(=O)N[C@@H](CCC(=O)O)C(=O)N[C@@H](CO)C(=O)N[C@@H](CC(=O)O)C(=O)N[C@@H](CCC(=O)O)C(=O)N[C@@H](C)C(=O)N[C@@H](CC(C)C)C(=O)N[C@@H](CCCCN)C(=O)N[C@@H](CCSC)C(=O)O [Flu.NS1.68] | 5190 | 679 |  | 5060 | 1.05
11 | CC[C@H](C)[C@H](NC(=O)[C@H](CC(C)C)NC(=O)[C@H](CCSC)NC(=O)[C@H](CC(C)C)NC(=O)[C@H](Cc1c[nH]c2ccccc12)NC(=O)[C@H](CC(=O)O)NC(=O)[C@H](CCCNC(=N)N)NC(=O)[C@H](CO)NC(=O)[C@H](CCSC)NC(=O)[C@H](CCC(=O)O)NC(=O)[C@H](CCC(=O)O)NC(=O)[C@@H](N)CC(C)C)C(=O)N1CCC[C@H]1C(=O)N[C@@H](CCCCN)C(=O)N[C@@H](CCC(N)=O)C(=O)O [Flu.NS1.98] |  |  |  |  | 0.17
12 | CC(C)C[C@H](NC(=O)[C@H](CCCCN)NC(=O)[C@H](CCCNC(=N)N)NC(=O)[C@H](CO)NC(=O)[C@H](CCC(=O)O)NC(=O)[C@H](C)NC(=O)[C@H](CO)NC(=O)[C@H](Cc1ccccc1)NC(=O)CNC(=O)[C@H](CCC(=O)O)NC(=O)[C@@H](N)CC(C)C)C(=O)N[C@@H](CC(C)C)C(=O)N[C@@H](CC(C)C)C(=O)N[C@H](C(=O)N[C@H](C(=O)O)C(C)C)C(C)C [Flu.PA.658] | 12 | 861 |  | 2270 | 0.661
13 | CC[C@H](C)[C@H](NC(=O)[C@@H](N)CC(C)C)C(=O)N[C@@H](CC(=O)O)C(=O)N[C@@H](Cc1ccccc1)C(=O)N[C@@H](CC(C)C)C(=O)N[C@@H](CCCCN)C(=O)N[C@@H](CC(=O)O)C(=O)N[C@H](C(=O)N[C@@H](CCSC)C(=O)N[C@@H](CCC(=O)O)C(=O)N[C@@H](CO)C(=O)N[C@@H](CCSC)C(=O)N[C@@H](CC(=O)O)C(=O)N[C@@H](CCCCN)C(=O)N[C@@H](CCC(=O)O)C(=O)O)C(C)C [Flu.PB1.166] |  |  |  |  | 0.12
14 | CSCC[C@H](NC(=O)[C@H](CCCCN)NC(=O)[C@H](CO)NC(=O)[C@@H](N)C(C)C)C(=O)NCC(=O)N[C@H](C(=O)N[C@@H](CC(=O)O)C(=O)N[C@@H](CCC(=O)O)C(=O)N[C@@H](Cc1ccc(O)cc1)C(=O)N[C@@H](CO)C(=O)N[C@@H](CO)C(=O)N[C@H](C(=O)N[C@@H](CCC(=O)O)C(=O)N[C@@H](CCCNC(=N)N)C(=O)N[C@H](C(=O)O)C(C)C)[C@@H](C)O)C(C)C [Flu.PB2.483] |  |  |  | 1850 | 1.02
15 | CC[C@H](C)[C@H](NC(=O)[C@H](CC(C)C)NC(=O)[C@@H](N)Cc1ccccc1)C(=O)N[C@@H](CC(C)C)C(=O)NCC(=O)N[C@@H](CCCCN)C(=O)N[C@@H](CCC(=O)O)C(=O)N[C@@H](CC(=O)O)C(=O)N[C@@H](CCCNC(=N)N)C(=O)N[C@@H](CCCNC(=N)N)C(=O)N[C@@H](Cc1ccc(O)cc1)C(=O)NCC(=O)N1CCC[C@H]1C(=O)N[C@@H](C)C(=O)N[C@@H](CC(C)C)C(=O)O [Flu.PB2.697] | 8390 | 1740 |  | 118 | 0.565
16 | CC[C@H](C)[C@H](NC(=O)[C@H](CCCNC(=N)N)NC(=O)[C@H](CCCCN)NC(=O)[C@@H](NC(=O)[C@H](C)NC(=O)[C@@H](NC(=O)[C@H](CCC(N)=O)NC(=O)[C@H](CO)NC(=O)[C@H](CC(=O)O)NC(=O)[C@@H](NC(=O)[C@H](CC(C)C)NC(=O)[C@@H](NC(=O)[C@H](CO)NC(=O)[C@H](CO)NC(=O)[C@@H](N)CC(=O)O)[C@@H](C)CC)[C@@H](C)O)[C@@H](C)O)[C@@H](C)O)C(=O)O [Flu.PB2.743] |  |  |  |  | 0.036
17 | CEQIADSQHRSHRQM [Flu.M1.154] |  |  |  |  | 0.804
18 | MEWLKTRPILSPLTK [Flu.M1.46] | 52 | 528 | 111 | 3870 | 
19 | TRPILSPLTKGILGF [Flu.M1.51] | 423 |  | 140 | 292 | 
